Measurements from US20190274968A1 (priority 2016, published 2019).

Tested on: luciferase
Assay type: in vivo, BALB/c mice
Settings: LNP with the indicated cationic lipid; 3 μg Luciferase mRNA-LNP intradermal

SMILES	delivery of mRNA (expression of luciferase measured by IVIS)
CCCCCCCCC(CCCCCC)C(=O)OCCCCCCN(CCCCO)CCCCCCOC(=O)C(CCCCCC)CCCCCCCC (stereo not drawn) [III-3]	effectively delivered
CCCCCCCCC(=O)N(CCCN(C)C)C(CCCCCCCCC(=O)OCC(CCCC)CCCCCC)CCCCCCCCC(=O)OCC(CCCC)CCCCCC (stereo not drawn) [II-9]	effectively delivered
CCCCCCCCC(=O)N(CCCN(C)C)C(CCCCCCCCC(=O)OC(CCCCCC)CCCCCC)CCCCCCCCC(=O)OC(CCCCCC)CCCCCC [II-11]	effectively delivered
CCCCCCCCC(CCCCCC)COC(=O)CCCCCCCCC(CCCCCCCCC(=O)OCC(CCCCCC)CCCCCCCC)N(CCCN(C)C)C(=O)CCCCCCC (stereo not drawn) [II-12]	effectively delivered
CCCCCCCC(=O)N(CCCN(C)C)C(CCCCCCCCC(=O)OC(CCCCCC)CCCCCC)CCCCCCCCC(=O)OC(CCCCCC)CCCCCC [II-10]	effectively delivered
CCCCCCCCC(CCCCCC)C(=O)OCCCCCCN(CCCCCCOC(=O)C(CCCCCC)CCCCCCCC)CCN(C)C (stereo not drawn) [Compound I-5]	effectively delivered
CCCCCCCCC(=O)N(CCCN1CCCC1)C(CCCCCCCCC(=O)OCC(CCCC)CCCCCC)CCCCCCCCC(=O)OCC(CCCC)CCCCCC (stereo not drawn) [II-36]	effectively delivered
CCCCCCCCC(CCCCCC)C(=O)OCCCCCCCCCN(CCCCCCCCCOC(=O)C(CCCCCC)CCCCCCCC)CCN(C)C (stereo not drawn) [Compound I-6]	effectively delivered
CCCCCCCCC(CCCCCC)C(=O)OCCCCCCN(CCCCCO)CCCCCCOC(=O)C(CCCCCC)CCCCCCCC (stereo not drawn) [III-7]	effectively delivered
